# How the values were obtained:
# hyperammonemia rats [1] = assay: Blood ammonia reducing experiment (in injection), acetamide-treated rats; type: in vivo, SD rats; settings: for Blood ammonia concentration / Reduction rate: i.p. for 4 days, sodium glutamate 410 mg/kg
# Protocol: The animals used in this experiment were 50 healthy male SD rats weighing 250-300 g. They were randomly divided into 5 groups, that is, group of normal control, experimental control (acetamide group), sodium glutamate/acetamide group, Dihydortanshinone I/acetamide group and tanshinone IIA/acetamide group. The rats in all those groups except the normal control group were injected intraperitoneally with saline, sodium glutamate injection (with a dose of 410 mg/kg), saline solution of Dihydortanshinone I (containing small amount of surface active agent, with a dose of 10 mg/kg), saline solution of tanshinone IIA (containing small amount of surface active agent, with a dose of 10 mg/kg) respectively. 45 min after the injection, the rats in all those groups except control group were injected intraperitoneally with 5.5 mmol/kg acetamide. Above injections continued for 4 days. In the 4th day, 30 min after the acetamide injection, blood samples of the rats in each group were collected by eyeball removing method immediately, and processed with the anticoagulant EDTA-Na, then the blood ammonia concentration was determined using conventional method. […] The dose of […] in this example and following examples was settled with the reference of its actual clinical dose. The method for determining the blood ammonia concentration in this example and following examples was enzyme-UV method, the instrument used was HITACHI-7170 automatic analyzer, and the kit used was AMMONIA kit.
# (§1) With the same experiment method, 90 min after the acetamide injection at the 4th day, blood samples of the rats in each group were collected by eyeball removing method immediately, and processed with the anticoagulant EDTA-Na, then the blood ammonia concentration was determined.
# The animals used in this experiment were 40 healthy male SD rats weighing 250-300 g. They were randomly divided into 4 groups, that is, normal control group, experimental control group (acetamide group), sodium glutamate/acetamide group, and Cryptotanshinone/acetamide group. The rats in all those groups except the normal control group were injected intraperitoneally with saline, sodium glutamate injection (with a dose of 410 mg/kg), and saline solution of Cryptotanshinone (containing small amount of surface active agent, with a dose of 10 mg/kg) respectively. 45 min after the injection, the rats in all those groups except the normal control group were injected intraperitoneally with 5.5 mmol/kg acetamide. Above injections continued for 4 days. In the 4th day, 30 min after the acetamide injection, blood samples of the rats in each group were collected by eyeball removing method immediately, and processed with the anticoagulant EDTA-Na, then the blood ammonia concentration was determined.
# hyperammonemia rats [2] = assay: Blood ammonia reducing experiment (in oral), acetamide-treated rats; type: in vivo, SD rats
# Protocol: In the 4th day, 30 min after the acetamide injection, blood samples of the rats in each group were collected by eyeball removing method immediately, and processed with the anticoagulant EDTA-Na, then the blood ammonia concentration was determined.
# as §1
# [3] = tested on: acute hepatocirrhosis hyperammnonemia rat model; assay: Coma and death caused by acute hepatocirrhosis in rats (in injection); type: in vivo, SD rats; settings: Table 9; i.p. 4 days, Cryptotanshinone 10 mg/kg, sodium glutamate 410 mg/kg; tetrachloro-methane peanut oil; 8.5 mmol/kg acetamide i.p. on 4th day
# Protocol: The animals used in this experiment were 40 healthy male SD rats weighing 250-300 g. They were randomly divided into 4 groups, that is, group of normal control, experimental control (acetamide group), sodium glutamate/acetamide group, and Cryptotanshinone/acetamide group. The rats in all those groups except the normal control group were injected intraperitoneally with saline, sodium glutamate injection (with a dose of 410 mg/kg), and saline solution of Cryptotanshinone (containing small amount of surface active agent, with a dose of 10 mg/kg) respectively. 45 min after the injection, the rats in all those groups except the normal control group were injected intraperitoneally with peanut oil containing 0.1% tetrachloro-methane. Above injections continued for 4 days. In the 4th day, 45 min after the tetrachloride peanut oil injection, the rats in each group (including the normal control group) were injected intraperitoneally with 8.5 mmol/kg acetamide solution. The time from acetamide injection to coma (latent period), from coma to awakening (coma time) and death rate in rats was recorded.
# [4] = tested on: acute hepatocirrhosis hyperammnonemia rat model; assay: Coma and death caused by acute hepatocirrhosis in rats (in oral); type: in vivo, SD rats; settings: Table 10; Cryptotanshinone oral 100 mg/kg; tetrachloro-methane peanut oil; 8.5 mmol/kg acetamide i.p. on 4th day
# Protocol: The time from acetamide injection to coma (latent period), from coma to awakening (coma time) and death rate in rats was recorded.
# healthy male mice [5] = assay: Acute toxicity test in mouse
# From the text: Acute toxicity test in mouse: The animals used in this study were healthy male mice. The drug was administrated intragastrically for 7 days once daily.
# healthy male mice [6] = assay: 30 days toxicity test in mouse; type: in vivo; settings: intragastric, 200 mg/kg day
# Protocol: The drug was continually administrated intragastrically for 30 days with dose of 200 mg/kg day.
# [7] = Table 3, Cryptotanshinone 10 mg/kg, blood 30 min after acetamide on 4th day
# [8] = Table 4, Cryptotanshinone 10 mg/kg, blood 90 min after acetamide on 4th day
# [9] = Table 7, Cryptotanshinone in oral (intragastric 100 mg/kg), blood 30 min after acetamide on 4th day
# [10] = Table 8, Cryptotanshinone in oral (intragastric 100 mg/kg), blood 90 min after acetamide on 4th day
# [11] = Table 1, tanshinones 10 mg/kg, blood 30 min after 5.5 mmol/kg acetamide on 4th day
# [12] = Table 1, tanshinones 10 mg/kg, blood 30 min after acetamide on 4th day
# [13] = Table 2, tanshinones 10 mg/kg, blood 90 min after acetamide on 4th day
# [14] = Table 5, tanshinones intragastric 100 mg/kg, acetamide 120 min later, blood 30 min after acetamide on 4th day
# [15] = Table 6, tanshinones intragastric 100 mg/kg, blood 90 min after acetamide on 4th day
SMILES,Blood ammonia concentration (hyperammonemia rats [1]; [7]) [µmol/L],Reduction rate (hyperammonemia rats [1]; [7]) [%],Blood ammonia concentration (hyperammonemia rats [1]; [8]) [µmol/L],Reduction rate (hyperammonemia rats [1]; [8]) [%],Blood ammonia concentration (hyperammonemia rats [2]; [9]) [µmol/L],Reduction rate (hyperammonemia rats [2]; [9]) [%],Blood ammonia concentration (hyperammonemia rats [2]; [10]) [µmol/L],Reduction rate (hyperammonemia rats [2]; [10]) [%],Coma time (from coma to awakening) [3] [min],Latent period (time from acetamide injection to coma) [3] [min],Mortality [3] [%],Coma time (from coma to awakening) [4] [min],Blood ammonia concentration (hyperammonemia rats [1]; [11]) [µmol/L],Reduction rate (hyperammonemia rats [1]; [12]) [%],Blood ammonia concentration (hyperammonemia rats [1]; [13]) [µmol/L],Reduction rate (hyperammonemia rats [1]; [13]) [%],Blood ammonia concentration (hyperammonemia rats [2]; [14]) [µmol/L],Reduction rate (hyperammonemia rats [2]; [14]) [%],Blood ammonia concentration (hyperammonemia rats [2]; [15]) [µmol/L],Reduction rate (hyperammonemia rats [2]; [15]) [%],also measured
"C[C@H]1COC2=C1C(=O)C(=O)c1c2ccc2c1CCCC2(C)C [Cryptotanshinone, 1,6,6-trimethyl-1,2,6,7,8,9-hexahydrophenanthrene[1,2-b]furan-10,11-dione]",420,60,110,100,470,54,120,97,65,12,20,75,,,,,,,,,"Latent period (time from acetamide injection to coma) [4]: 12 min; Mortality [4]: 20%; LD50 (healthy male mice [5]; mice, intragastric, once daily for 7 days): > 1500 mg/kg; Toxic symptom or death (healthy male mice [5]; mice, intragastric, once daily for 7 days, dose up to 1.5 g/kg): no toxic symptom or death; Toxicity, overall conclusion (healthy male mice [5]; summary statement): safe to use as drug in normal dosage; Death of mice (healthy male mice [6]): no death of mice manifested; Growth and development, hematopoietic function, biochemical index (healthy male mice [6]): no apparent abnormal change or toxic reaction; Pathology of major organs (anatomical and tissue microscopy inspection) (healthy male mice [6]): No pathology change of major organs"
"Cc1cccc2c3c(ccc12)C1=C(C(=O)C3=O)C(C)CO1 (centres unmarked) [Dihydortanshinone I, 1,6-dimethyl-1,2-dihydrophenanthrene[1,2-b]furan-10,11-dione]",,,,,,,,,,,,,490,51,125,96,550,44,135,89,
N[C@@H](CCC(=O)[O-])C(=O)[O-].[Na+].[Na+] [Sodium Glutamate],480,53,110,100,510,49,130,91,75,11,50,90,480,53,120,97,510,49,130,91,Latent period (time from acetamide injection to coma) [4]: 9 min; Mortality [4]: 50%
Cc1coc2c1C(=O)C(=O)c1c-2ccc2c1CCCC2(C)C [Tanshinone IIA],,,,,,,,,,,,,850,<5,265,<12,865,<4,270,<10,"Function to reduce the blood ammonia concentration (hyperammonemia rats [1]; hyperammonemia animal model, summary statement): have no such function"

# From patent US20040024056A1, “Dihydrofuran cyclic tanshinones used in treating hyperammonemia and hepatic encephalopathy” (priority 2001, published 2004)
